Reference: patent US20240174727A1, “LONG-ACTING NATRIURETIC PEPTIDES AND USES THEREOF” (Eli Lilly and Company, priority 2022, published 2024)

Tests used:
[1] = Pharmacokinetics in male Sprague Dawley rats; assay type: in vivo; settings: rat, sc, mean, single subcutaneous administration of 200 nMol/kg, plasma
Procedure, shortened: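 Male Sprague Dawley rats received a single subcutaneous dose of […], with blood sampled over 120 hours. Intact peptide in K3 EDTA plasma was measured by qualified high-resolution LC/MS after methanol/0.1% formic acid extraction with an analog internal standard; PK parameters from individual plasma concentrations.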

[2] = tested on: plasma cGMP; test: In vivo monkey studies, plasma cGMP ELISA; parameters: species or system male cynomolgus monkeys
Procedure, shortened: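 Absorbance at 405 nm from an acetylated competitive ELISA gave plasma cGMP, calculated as B/B0% against a 4-parameter standard curve. Samples came from male cynomolgus monkeys dosed once SC. The net change subtracts each animal's predose value. Rat plasma spiked with an extra 40 nM cGMP served as the recovery control.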

## CC[C@H](C)[C@@H]1NC(=O)[C@H](CCCNC(=N)N)NC(=O)[C@H](CC(=O)O)NC(=O)[C@H]([C@@H](C)CC)NC(=O)[C@H](CCCNC(=N)N)NC(=O)CNC(=O)CNC(=O)[C@H](Cc2ccccc2)NC(=O)[C@@H](NC(=O)[C@H](CO)NC(=O)[C@H](CO)NC(=O)[C@H](CCCNC(=N)N)NC(=O)CCNC(=O)[C@H](CCCCN)NC(=O)[C@H](CCC(=O)O)NC(=O)CNC(=O)[C@H](CCCCN)NC(=O)[C@H](CCC(=O)O)NC(=O)[C@H](CCCCN)NC(=O)[C@H](CCC(=O)O)NC(=O)[C@H](CCCCN)NC(=O)[C@H](CCC(=O)O)NC(=O)CC[C@H](NC(=O)CCCCCCCCCCCCCCCCCCC(=O)O)C(=O)O)CSCSC[C@@H](C(=O)N2CCC[C@H]2C(=O)N[C@@H](CO)C(=O)N[C@@H](Cc2ccccc2)C(=O)N[C@@H](CCCNC(=N)N)C(=O)N[C@@H](Cc2c[nH]cn2)C(=O)NCC(=O)NCC(=O)N2CCC[C@H]2C(=O)N[C@@H](CO)C(=O)N[C@@H](CO)C(=O)NCC(=O)N[C@@H](C)C(=O)N2CCC[C@H]2C(=O)N2CCC[C@H]2C(=O)N2CCC[C@H]2C(=O)N[C@@H](CO)C(N)=O)NC(=O)CNC(=O)[C@H](CC(C)C)NC(=O)CNC(=O)[C@H](CO)NC(=O)[C@H](Cc2ccc(O)cc2)NC(=O)[C@H](Cc2c[nH]cn2)NC(=O)CNC1=O [Example 56]
[1]
  CL/F: 0.187 mL/min/kg
[1]; read-out: t½ (converted)
  half-life: 36 h
[2]; dose 100 nmol/kg, 0.083 h postdose, monkey plasma
  Net cGMP (nM) Change from Baseline 0.083 h: -2.8 nM
[2]; dose 100 nmol/kg, 0.25 h postdose, monkey plasma
  Net cGMP (nM) Change from Baseline 0.25 h: -0.66 nM
[2]; dose 100 nmol/kg, 0.5 h postdose, monkey plasma
  Net cGMP (nM) Change from Baseline 0.5 h: -0.65 nM
[2]; dose 100 nmol/kg, 1 h postdose, monkey plasma
  Net cGMP (nM) Change from Baseline 1 h: -0.51 nM
[2]; dose 100 nmol/kg, 2 h postdose, monkey plasma
  Net cGMP (nM) Change from Baseline 2 h: -1.82 nM
[2]; dose 100 nmol/kg, 4 h postdose, monkey plasma
  Net cGMP (nM) Change from Baseline 4 h: 1.83 nM
[2]; dose 100 nmol/kg, 8 h postdose, monkey plasma
  Net cGMP (nM) Change from Baseline 8 h: 10.57 nM
[2]; dose 100 nmol/kg, 12 h postdose, monkey plasma
  Net cGMP (nM) Change from Baseline 12 h: 12.11 nM
[2]; dose 100 nmol/kg, 24 h postdose, monkey plasma
  Net cGMP (nM) Change from Baseline 24 h: 17.03 nM
[2]; dose 100 nmol/kg, 36 h postdose, monkey plasma
  Net cGMP (nM) Change from Baseline 36 h: 16.59 nM
[2]; dose 100 nmol/kg, 48 h postdose, monkey plasma
  Net cGMP (nM) Change from Baseline 48 h: 11.66 nM
[2]; dose 100 nmol/kg, 72 h postdose, monkey plasma
  Net cGMP (nM) Change from Baseline 72 h: 11.45 nM
[2]; dose 100 nmol/kg, 96 h postdose, monkey plasma
  Net cGMP (nM) Change from Baseline 96 h: 9.32 nM
[2]; dose 100 nmol/kg, 120 h postdose, monkey plasma
  Net cGMP (nM) Change from Baseline 120 h: 9.31 nM
[2]; dose 100 nmol/kg, 144 h postdose, monkey plasma
  Net cGMP (nM) Change from Baseline 144 h: 7.36 nM
[2]; dose 100 nmol/kg, 168 h postdose, monkey plasma
  Net cGMP (nM) Change from Baseline 168 h: 1.99 nM
[2]; monkeys, single SC dose, plasma
  net cGMP levels (result in words): increased net cGMP levels
